Test results from US20210283211A1, “COMPOSITIONS AND METHODS OF ALLEVIATING RESISTANCE TO CHEMOTHERAPY” (CITY OF HOPE, priority 2019, published 2021).
“Also recorded” adds a separate entry of the source. One block for each compound: values may come before it.

Columns and labels:
[1] = system: H358 cells; assay: Cell-based rescreen of top virtual-screen hits, IC50 determination; settings: Homo sapiens, NCI-H358, 0.1 μM to 10 μM, 72 hours
Protocol: Cell viability assay: Cell Counting Kit-8 (CCK-8) was purchased from Dojindo Molecular Technologies (Rockville, Md., USA). Cells were seeded on a 96-well plate and allowed to adhere in complete medium for 24 hours. Test compounds were added to 100 μl of medium at the indicated concentrations for 72 hours. Ten μl of the CCK-8 reagent were added to each well and absorbance at 450 nm was measured using a Tecan Spark 10M multimode microplate reader.
A virtual screen of a library of 1440 FDA-approved drugs using binding pockets in the N-terminal domain of PXN (FIG. 9H) identified several putative hits. The top 40 hits were then rescreened employing a cell-based assay to determine their efficacy using H358 cells.

[2] = system: H2009 cells; assay: Scratch wound healing assay; format: cell-based, human; settings: for cell migration / wound healing: sublethal dose (carfilzomib 50-200 nM)
Protocol: (§1) Scratch wound healing assay. Cells were seeded on a 96-well Image Lock (Essen BioScience, Ann Arbor, Mich., USA) plate to reach 90% confluence by the next day. After cell adherence, 96 uniform wounds were created simultaneously using the WoundMaker (Essen BioScience) tool. Cells were washed once with serum-free medium and replenished with complete medium. To monitor wound healing, the plate was placed in the IncuCyte S3 Live-Cell Analysis System (Essen BioScience) and images were acquired every hour. Data analysis was generated by the IncuCyte software using a set confluence mask to measure relative wound density over time.
(§2) To discern the effect of knocking down ITGB4 on cell migration, H1993 and H2009 cells were transfected with the control or ITGB4-specific siRNA in 6-well plates and 12 hours post transfection, the cells were trypsinized and reseeded at high density in a 96-well plate. […] While both cell lines transfected with the control siRNA achieved 100% confluency of the wound within 48 hours, H1993 and 2009 cells in which ITGB4 was knocked down reached ˜60% and ˜80% confluency, respectively; neither cell line reached 100% confluency even after 96 h (FIG. 3F). Next the rate of wound closure was estimated. The rate was determined by dividing initial wound width by the time taken to close the wound. […] Similarly, in the case of the H2009 cells, the wound width closure rate dropped from 22 μm/h to about 18 μm/h (FIG. 3G). […] Additionally, up regulation of expression of other integrin β forms in response to ITGB4 knockdown was checked and an increase in the expression of ITGB1, ITGB2, and ITGB3 at mRNA level was found (FIG. 3I). The effect of ITGB3 silencing in the ITGB4 knocked down cells was further tested but no significant difference in their proliferation was found (FIG. 3J).

[3] = system: ITGB4 and PXN expression, γH2AX in H358 cells; assay: Immunoblot after sublethal dose; format: cell-based, human; settings: 72 hours
Protocol: West blotting: Cell lysates were prepared with 1×RIPA buffer (MilliporeSigma) and denatured in 1× reducing sample buffer at 95° C. for 5 minutes. Protein samples (15 μg) were run on 4-15% TGX gels (Bio-Rad, Hercules, Calif., USA) and transferred onto nitrocellulose membranes (Bio-Rad). Blots were blocked with 5% non-fat milk in TBS-T for 1 hour at room temperature and probed with primary antibody diluted in 2.5% BSA in TBS-T overnight at 4° C. After three washes with TBS-T, blots were incubated with HRP-conjugated secondary antibodies for 2 hours at room temperature. After three more washes, bands of interest were visualized via chemiluminescence using Western Bright ECL HRP substrate (Advansta, Menlo Park, Calif., USA) and imaged with the ChemiDoc MP imager (Bio-Rad).
Then a sublethal dose was used to determine the effect of these compounds on ITGB4 and PXN expression and caspase activity (FIG. 9I). […] These eleven compounds were further screened in the cisplatin-resistant cell line H2009. […] Further, carfilzomib was tested in another cisplatin-resistant cell line H1993.

[4] = system: H2009 cells; assay: IncuCyte cell proliferation and caspase-3/7 apoptosis assay; format: cell-based, human
Protocol: (§3) Cell proliferation and apoptosis assay. Cell proliferation assays were performed using cell lines stably transfected with NucLight Red Lentivirus (Essen Bioscience) to accurately visualize and count the nucleus of a single cell. Cells were seeded on a 96-well plate and allowed to adhere for 24 hours. Test compounds were added at indicated concentrations. Caspase-3/7 Green Apoptosis Reagent (Essen Bioscience) was also added as a green fluorescent indicator of caspase-3/7-mediated apoptotic activity. To monitor cell proliferation and apoptosis over time, the plate was placed in the IncuCyte S3 Live-Cell Analysis System (Essen BioScience) and images were acquired every 2 hours. Data analysis was generated by the IncuCyte software using a red fluorescence mask to accurately count each cell nucleus and a green fluorescence mask to measure apoptosis over time.
(§4) To determine whether the inhibition in cell proliferation associated with ITGB4 knockdown was due to enhanced apoptosis or reduced cell division (cytostatic), the Essen Bioscience Caspase-3/7 Green apoptosis assay in live cells was conducted. The NucView™[…], a DNA intercalating dye was used to enable quantification of apoptosis over time. The dye is impermeable and non-toxic to cells but once the cell membrane is permeabilized by caspase-3/7, the dye enters the cell and gets activated due to change in pH leading to the generation of green fluorescence that is then detected in real time and quantified using the IncuCyte System (FIG. 4B).
(§5) To address this, H1993 and H2009 cells were treated with cisplatin for 3 days and the changes were analyzed by immunoblotting. […] Next, H1993 and H2009 cells were transiently transfected with ITGB4 siRNA and 24 hours post-transfection they were treated with 10 μM cisplatin and cell proliferation and caspase activity were determined. […] However, in response to cisplatin in ITGB4 knockdown cells, the fold change dipped to <1, alluding to a cytotoxic effect (FIG. 4C). […] However, cell death was not due to caspase activation but appeared to be due to cell bursting which is seen in anoikis (FIGS. 3K and 3L).

[5] = system: H1993 cells; assay: as above; format: cell-based, human; settings: for inhibition of cell proliferation: siRNA knockdown
Protocol: as §3, §4
as §5, with “3L). […]” for “3L).”

[6] = system: H1993 cells; assay: Scratch wound healing assay; format: cell-based, human; settings: ITGB4 knockdown
Protocol: as §1, §2

Compound: CC(C)C[C@H](NC(=O)CNC(=O)c1cc(Cl)ccc1Cl)B(O)O [Ixazomib]
cell migration / wound healing [2]: less effective than carfilzomib in inhibiting wound healing; also recorded: impeded cell migration
IC50 [1]: 303 nM
apoptosis, DNA damage (γH2AX) and ITGB4 expression [3]: induced apoptosis and caused DNA damage

Compound: COc1cc2ncnc(Nc3ccc(F)c(Cl)c3)c2cc1NC(=O)/C=C/CN1CCCCC1 [Dacomitinib]
IC50 [1]: 60 nM

Compound: ACAACACUCAGAAUCUAAAUUGGAC (SEQ ID NO: 13) (listed as RNA, chemistry not given here) [VDAC1 siRNA, siRNA against VDAC1]
increase in apoptosis ([4]; VDAC1 knockdown, 120 hours): 2 fold
decrease in cell proliferation ([4]; VDAC1 knockdown, by 72 hours): 50%

Compound: Cc1cnc(-c2ccccc2C(C)C)nc1NCc1ccc(-n2ccnn2)cc1 [ML323]
cell proliferation rates ([4]; 5 μM and 10 μM, 3 days): no significant change
cell proliferation rates ([5]; 5 μM and 10 μM, 3 days): no significant change

Compound: GUCAGUUCUGCGAGUAUGACAACTT (SEQ ID NO: 9) (chemistry not given here) [ITGB4 siRNA, siRNA against ITGB4, construct C, OriGene SR302473C]
wound width closure rate ([2]; ITGB4 knockdown, control 22 μm/h): about 18 μm/h
wound confluency ([2]; ITGB4 knockdown, control siRNA 100% within 48 hours): ~80%
wound confluency ([6]; control siRNA 100% within 48 hours): ~60%
wound closure rate ([6]; control ~25 μm/h): < 10 μm/h
doubling time ([4]; ITGB4 knockdown, control approximately 25 hours): 40 h
fold change in cell count ([5]; ITGB4 knockdown or 10 μM cisplatin alone, cytostatic): ~1 fold
fold change in cell count ([5]; ITGB4 knockdown plus 10 μM cisplatin, cytotoxic): < 1 fold
increase in caspase activity compared to control ([5]; ITGB4 knockdown, by 24 hours): 5- to 6 fold
increase in caspase activity compared to control ([5]; ITGB4 knockdown, by 72 hours): 20 fold
increase in cell count ([5]; ITGB4 knockdown, by 72 hours): 0.2 fold
estimated doubling time ([5]; ITGB4 knockdown, control 72 hours): approximately 120 hours
drop in the fold change of cell count ([5]; knockdown plus cisplatin, compared to scramble siRNA cells treated with cisplatin): 40%
inhibition of cell proliferation [5]: 50%

Compound: GGAGCACAAAGCCAACUAACGARCA (SEQ ID NO: 11) (listed as RNA, chemistry not given here) [USP1 siRNA, siRNA against USP1, construct B, OriGene SR305052B]
inhibition of cell proliferation ([4]; USP1 knockdown, by 72 hours of seeding): > 2 fold

Compound: CN(C)C/C=C/C(=O)Nc1cc2c(Nc3ccc(F)c(Cl)c3)ncnc2cc1O[C@H]1CCOC1 [Afatinib]
IC50 [1]: 9 nM

Compound: GCUUCGCUGUCGGAUUUCATT (SEQ ID NO: 6) (chemistry not given here) [PXN siRNA, siRNA against PXN, Life Technologies Cat 4392421]
inhibition of cell proliferation [5]: 15%

Compound: CCS(=O)(=O)N1CCN(c2ccc(Nc3ncc(C(N)=O)c(NC4CC4)n3)cc2)CC1 [Cerdulatinib]
IC50 [1]: 1540 nM

Compound: C#Cc1cccc(Nc2ncnc3cc(OC)c(OCCCCCCC(=O)NO)cc23)c1 [CUDC-101]
cell migration / wound healing [2]: less effective than carfilzomib in inhibiting wound healing; also recorded: did not
IC50 [1]: 501 nM
apoptosis, DNA damage (γH2AX) and ITGB4 expression [3]: induced apoptosis and caused DNA damage

Continued, values first:

IC50 [1]: 60 nM
Compound: C=CC(=O)N1CCC(Oc2cc3c(Nc4ccc(Cl)c(Cl)c4F)ncnc3cc2OC)CC1 [Poziotinib]

IC50 [1]: 1 nM
Compound: Cc1nc(Nc2ncc(C(=O)Nc3c(C)cccc3Cl)s2)cc(N2CCN(CCO)CC2)n1 [Dasatinib]

IC50 [1]: 0.9 nM
Compound: Cc1cc(Nc2cc(N3CCN(C)CC3)nc(Sc3ccc(NC(=O)C4CC4)cc3)n2)[nH]n1 [Tozasertib]

IC50 [1]: 358 nM
Compound: C=CC(=O)Nc1cc(Nc2nccc(-c3cn(C)c4ccccc34)n2)c(OC)cc1N(C)CCN(C)C [Osimertinib]

IC50 [1]: 171 nM
Compound: C1=C/COCc2cc(ccc2OCCN2CCCC2)Nc2nccc(n2)-c2cccc(c2)COC/1 [Pacritinib]
